Test results as given in PubChem BioAssay (NCI).
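The compound was tested at five concentrations on cells cultured in 96-well plates, with a 48-hour exposure period. TGI marks complete inhibition of growth.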

Key:
Test in all cases: growth of human tumour cells (NCI), 48 h
T-47D breast = tested on: T-47D breast
SN12C renal = tested on: SN12C renal
MDA-N = tested on: MDA-N
NCI-H522 lung = tested on: NCI-H522 lung
SK-MEL-2 melanoma = tested on: SK-MEL-2 melanoma
IGROV1 ovarian = tested on: IGROV1 ovarian
CAKI-1 renal = tested on: CAKI-1 renal
MDA-MB-435 = tested on: MDA-MB-435
MDA-MB-231 breast = tested on: MDA-MB-231 breast
SR leukemia = tested on: SR leukemia
MOLT-4 leukemia = tested on: MOLT-4 leukemia
PC-3 prostate = tested on: PC-3 prostate
HOP-62 NSCLC = tested on: HOP-62 NSCLC
LOX IMVI melanoma = tested on: LOX IMVI melanoma
OVCAR-8 ovarian = tested on: OVCAR-8 ovarian
RXF 393 renal = tested on: RXF 393 renal
OVCAR-4 ovarian = tested on: OVCAR-4 ovarian
UACC-62 melanoma = tested on: UACC-62 melanoma
OVCAR-5 ovarian = tested on: OVCAR-5 ovarian
NCI-H226 lung = tested on: NCI-H226 lung
ACHN renal = tested on: ACHN renal
SNB-75 CNS = tested on: SNB-75 CNS
HL-60(TB) leukemia = tested on: HL-60(TB) leukemia
SNB-19 CNS = tested on: SNB-19 CNS
K-562 leukemia = tested on: K-562 leukemia
NCI-H460 lung = tested on: NCI-H460 lung
DU-145 prostate = tested on: DU-145 prostate
SK-OV-3 ovarian = tested on: SK-OV-3 ovarian
SF-268 CNS = tested on: SF-268 CNS
KM12 colon = tested on: KM12 colon
SK-MEL-5 melanoma = tested on: SK-MEL-5 melanoma
HCT-15 colon = tested on: HCT-15 colon
NCI/ADR-RES ovarian = tested on: NCI/ADR-RES ovarian
COLO 205 colon = tested on: COLO 205 colon
786-0 renal = tested on: 786-0 renal
HCC-2998 colon = tested on: HCC-2998 colon
EKVX NSCLC = tested on: EKVX NSCLC
U251 CNS = tested on: U251 CNS
RPMI-8226 leukemia = tested on: RPMI-8226 leukemia
HT29 colon = tested on: HT29 colon
MCF7 breast = tested on: MCF7 breast
HCT-116 colon = tested on: HCT-116 colon
NCI-H23 lung = tested on: NCI-H23 lung
A549 NSCLC = tested on: A549 NSCLC
TK-10 renal = tested on: TK-10 renal
OVCAR-3 ovarian = tested on: OVCAR-3 ovarian
SF-295 CNS = tested on: SF-295 CNS
SW-620 colon = tested on: SW-620 colon
UO-31 renal = tested on: UO-31 renal
UACC-257 melanoma = tested on: UACC-257 melanoma
SK-MEL-28 melanoma = tested on: SK-MEL-28 melanoma
HOP-92 NSCLC = tested on: HOP-92 NSCLC
HS 578T breast = tested on: HS 578T breast
M14 melanoma = tested on: M14 melanoma
CCRF-CEM leukemia = tested on: CCRF-CEM leukemia
SF-539 CNS = tested on: SF-539 CNS
MALME-3M melanoma = tested on: MALME-3M melanoma
A498 renal = tested on: A498 renal

Measured: TGI

c1ccc2c(c1)CCN2CCN1CCc2ccccc21
> 10 µM: T-47D breast | SN12C renal | MDA-N | NCI-H522 lung | SK-MEL-2 melanoma | IGROV1 ovarian | CAKI-1 renal | MDA-MB-435 | MDA-MB-231 breast | SR leukemia | MOLT-4 leukemia | PC-3 prostate | HOP-62 NSCLC | LOX IMVI melanoma | OVCAR-8 ovarian | RXF 393 renal | OVCAR-4 ovarian | UACC-62 melanoma | OVCAR-5 ovarian | NCI-H226 lung | ACHN renal | SNB-75 CNS | HL-60(TB) leukemia | SNB-19 CNS | K-562 leukemia | NCI-H460 lung | DU-145 prostate | SK-OV-3 ovarian | SF-268 CNS | KM12 colon | SK-MEL-5 melanoma | HCT-15 colon | NCI/ADR-RES ovarian | COLO 205 colon | 786-0 renal | HCC-2998 colon | EKVX NSCLC | U251 CNS | RPMI-8226 leukemia | HT29 colon | MCF7 breast | HCT-116 colon | NCI-H23 lung | A549 NSCLC | TK-10 renal | OVCAR-3 ovarian | SF-295 CNS | SW-620 colon | UO-31 renal | UACC-257 melanoma | SK-MEL-28 melanoma | HOP-92 NSCLC | HS 578T breast | M14 melanoma | CCRF-CEM leukemia | SF-539 CNS

Cc1cc2c3ccccc3nc2c2cc[nH]c(C)c12
> 85.5 µM: PC-3 prostate
4.49 µM: NCI-H522 lung
> 55.9 µM: IGROV1 ovarian
> 35.4 µM: OVCAR-3 ovarian
> 31.6 µM: KM12 colon | NCI-H23 lung
52.4 µM: ACHN renal
45.1 µM: UO-31 renal
3.42 µM: M14 melanoma
31.2 µM: SF-268 CNS
27.9 µM: UACC-62 melanoma
18.5 µM: SN12C renal
23.3 µM: SK-MEL-2 melanoma
> 64.7 µM: HOP-62 NSCLC
11.4 µM: SF-539 CNS
> 80.6 µM: HT29 colon
29.8 µM: DU-145 prostate
3.45 µM: MDA-MB-435
50.8 µM: A549 NSCLC
49.9 µM: HOP-92 NSCLC
22.1 µM: MOLT-4 leukemia
49.6 µM: SK-OV-3 ovarian
48.9 µM: SNB-19 CNS
4.23 µM: HL-60(TB) leukemia
4.89 µM: LOX IMVI melanoma
37.6 µM: TK-10 renal
51 µM: CAKI-1 renal
36.5 µM: OVCAR-5 ovarian | SNB-75 CNS
46.9 µM: UACC-257 melanoma
6.87 µM: SW-620 colon
28.8 µM: MALME-3M melanoma
20.2 µM: SK-MEL-5 melanoma
> 88.5 µM: SF-295 CNS
5.62 µM: U251 CNS
> 70.7 µM: EKVX NSCLC
20 µM: RPMI-8226 leukemia
38.9 µM: T-47D breast
31.6 µM: OVCAR-8 ovarian
3.06 µM: 786-0 renal
3.59 µM: K-562 leukemia
28.2 µM: NCI-H226 lung
7.59 µM: HCT-15 colon
17.1 µM: MDA-MB-231 breast
> 74.8 µM: SR leukemia
4.77 µM: CCRF-CEM leukemia
4.31 µM: COLO 205 colon
> 100 µM: OVCAR-4 ovarian | NCI/ADR-RES ovarian | MCF7 breast
6.67 µM: HCC-2998 colon
3.3 µM: MDA-N | SK-MEL-28 melanoma
> 65.5 µM: HS 578T breast
3.57 µM: HCT-116 colon

Cc1cc(C)n(C(=O)CSc2nc3ccc(I)cc3c(=O)n2Cc2ccccc2)n1
> 100 µM: T-47D breast | SN12C renal | MDA-N | SK-MEL-2 melanoma | MDA-MB-435 | SR leukemia | MOLT-4 leukemia | LOX IMVI melanoma | OVCAR-4 ovarian | UACC-62 melanoma | OVCAR-5 ovarian | NCI-H226 lung | ACHN renal | HL-60(TB) leukemia | SNB-19 CNS | K-562 leukemia | NCI-H460 lung | DU-145 prostate | SK-OV-3 ovarian | KM12 colon | SK-MEL-5 melanoma | HCT-15 colon | NCI/ADR-RES ovarian | COLO 205 colon | 786-0 renal | HCC-2998 colon | EKVX NSCLC | U251 CNS | RPMI-8226 leukemia | HT29 colon | MCF7 breast | HCT-116 colon | NCI-H23 lung | A549 NSCLC | TK-10 renal | OVCAR-3 ovarian | SF-295 CNS | SW-620 colon | UACC-257 melanoma | SK-MEL-28 melanoma | M14 melanoma | CCRF-CEM leukemia | SF-539 CNS
78.8 µM: IGROV1 ovarian
62.4 µM: RXF 393 renal
63.4 µM: A498 renal | SNB-75 CNS
71 µM: SF-268 CNS
70.3 µM: HOP-62 NSCLC | OVCAR-8 ovarian
44.6 µM: HS 578T breast
63.7 µM: PC-3 prostate
62.1 µM: NCI-H522 lung
66.3 µM: MDA-MB-231 breast
22.2 µM: CAKI-1 renal
53 µM: HOP-92 NSCLC

CC1(C)NC(C)(C)/C(=N\O)C(=NO)/C1=N/O
> 100 µM: T-47D breast | SN12C renal | MDA-N | SK-MEL-2 melanoma | IGROV1 ovarian | CAKI-1 renal | MDA-MB-435 | MDA-MB-231 breast | SR leukemia | MOLT-4 leukemia | MALME-3M melanoma | PC-3 prostate | HOP-62 NSCLC | LOX IMVI melanoma | OVCAR-8 ovarian | RXF 393 renal | OVCAR-4 ovarian | UACC-62 melanoma | OVCAR-5 ovarian | NCI-H226 lung | ACHN renal | SNB-75 CNS | HL-60(TB) leukemia | SNB-19 CNS | K-562 leukemia | NCI-H460 lung | DU-145 prostate | SK-OV-3 ovarian | SF-268 CNS | KM12 colon | SK-MEL-5 melanoma | HCT-15 colon | NCI/ADR-RES ovarian | COLO 205 colon | 786-0 renal | HCC-2998 colon | EKVX NSCLC | U251 CNS | RPMI-8226 leukemia | HT29 colon | MCF7 breast | HCT-116 colon | NCI-H23 lung | A549 NSCLC | TK-10 renal | OVCAR-3 ovarian | SF-295 CNS | SW-620 colon | UO-31 renal | UACC-257 melanoma | SK-MEL-28 melanoma | HOP-92 NSCLC | HS 578T breast | M14 melanoma | CCRF-CEM leukemia | SF-539 CNS

CCOC(=O)C(NC(=O)CC)(Nc1ccccc1OC)C(F)(F)F (stereo unspecified)
> 100 µM: T-47D breast | SN12C renal | MDA-N | NCI-H522 lung | SK-MEL-2 melanoma | IGROV1 ovarian | CAKI-1 renal | MDA-MB-435 | MDA-MB-231 breast | SR leukemia | MOLT-4 leukemia | PC-3 prostate | LOX IMVI melanoma | OVCAR-8 ovarian | RXF 393 renal | OVCAR-4 ovarian | UACC-62 melanoma | OVCAR-5 ovarian | ACHN renal | SNB-75 CNS | HL-60(TB) leukemia | SNB-19 CNS | K-562 leukemia | NCI-H460 lung | DU-145 prostate | SK-OV-3 ovarian | SF-268 CNS | KM12 colon | SK-MEL-5 melanoma | HCT-15 colon | NCI/ADR-RES ovarian | COLO 205 colon | HCC-2998 colon | EKVX NSCLC | U251 CNS | RPMI-8226 leukemia | HT29 colon | MCF7 breast | HCT-116 colon | NCI-H23 lung | A549 NSCLC | TK-10 renal | OVCAR-3 ovarian | SF-295 CNS | SW-620 colon | UO-31 renal | UACC-257 melanoma | SK-MEL-28 melanoma | HOP-92 NSCLC | HS 578T breast | M14 melanoma | CCRF-CEM leukemia | SF-539 CNS
